Assay: excess molar enthalpy (molar enthalpy of mixing); xn = mol fraction of the nth substance listed
Details: 973 K, Liquid, Calvet calorimetry

[Pb] [lead] + [Ag]
Details | excess molar enthalpy [kJ/mol]
101.3 kPa, x2 = 0.2 | 2.32

[Pb] [lead] + [Au]
101 kPa
Details | excess molar enthalpy [kJ/mol]
x2 = 0.0446 | -0.24
x2 = 0.0465 | -0.181
x2 = 0.0726 | -0.383
x2 = 0.0864 | -0.464
x2 = 0.0922 | -0.345
x2 = 0.1272 | -0.631
x2 = 0.1358 | -0.531
x2 = 0.1368 | -0.643
x2 = 0.1653 | -0.729
x2 = 0.1768 | -0.665
x2 = 0.1938 | -0.789
x2 = 0.2 | -0.886
x2 = 0.2003 | -0.847
x2 = 0.2148 | -0.782
x2 = 0.2333 | -0.876
x2 = 0.2482 | -0.885
x2 = 0.2506 | -0.854
x2 = 0.2652 | -0.952
x2 = 0.2841 | -0.92
x2 = 0.2962 | -1
x2 = 0.2966 | -0.955
x2 = 0.3161 | -0.929
x2 = 0.3226 | -1.02
x2 = 0.3436 | -0.985
x2 = 0.3455 | -0.969
x2 = 0.3733 | -0.985
x2 = 0.3862 | -1
x2 = 0.4 | -1.07
x2 = 0.402 | -1.01
x2 = 0.4248 | -1.01
x2 = 0.4294 | -1.04
x2 = 0.4416 | -1.04

From the NIST ThermoML archive (doi:10.1016/j.tca.2007.07.015)
